We go through seven molecules from ChEMBL document CHEMBL5108080 (J Med Chem, 2022).

Series [1] concerns Influenza A virus. Briefly: Antiviral activity against group 2 influenza A virus H3N2 (A/Hong Kong-11/1968) infected in MDCK cells infected with supernatant of compound treated virus-producing human A549 cells assessed as reduction in viral titer at 1 to 10 uM treated for 48 hrs with virus-producing human A549 cells followed by MDCK cells infection for 48 hrs by crystal violet staining based plaque assay. Particulars: dose 1-10 µM, time 96.0 hrs. The class given is functional, organism-based.

A short description of series [2]: Selectivity index, ratio of CC50 for human A549 cells to IC50 for […] influenza A H5N1 pseudotyped virus infected in A549 cells. The class given is toxicity, cell-based. To be noted: read-out: Ratio CC50/IC50.
The nature of series [3]: Selectivity index, ratio of CC50 for human A549 cells to IC50 for group 2 influenza A H7N1 pseudotyped virus infected in A549 cells. The class given is toxicity, cell-based. Particulars: read-out: Ratio CC50/IC50.
Series [4] concerns Vesicular stomatitis virus. Nature of the series: Antiviral activity against VSV pseudotyped virus infected in A549 cells assessed as inhibition of viral entry incubated for 48 hrs by measuring luciferase activity by Neolite reporter gene assay. Type of series: functional, organism-based. To be noted: A549, 48 h.
In series [5] the test system is Influenza A virus. Briefly: Antiviral activity against group 2 influenza A H7N1 pseudotyped virus infected in A549 cells assessed as inhibition of viral entry incubated for 48 hrs by measuring luciferase activity by Neolite reporter gene assay. The class given is functional, organism-based. Particulars: H7N1, A549, 48 h.
A short description of series [6]: Selectivity index, ratio of CC50 for human A549 cells to IC50 for VSV pseudotyped virus infected in A549 cells. Type of series: toxicity, cell-based. To be noted: read-out: Ratio CC50/IC50.
The subject of series [7] is Influenza A virus. Briefly: Antiviral activity against group 2 influenza A virus H3N2 (A/Victoria/361/2011) infected in MDCK cells infected with supernatant of compound treated virus-producing human A549 cells assessed as reduction in viral titer at 1 to 10 uM treated for 48 hrs with virus-producing human A549 cells followed by MDCK cells infection for 48 hrs by crystal violet staining based plaque assay. To be noted: dose 1-10 µM, time 96.0 hrs. Type of series: functional, organism-based.

The subject of series [8] is Influenza A virus. Nature of the series: Antiviral activity against […] influenza A H5N1 pseudotyped virus infected in A549 cells assessed as inhibition of viral entry incubated for 48 hrs by measuring luciferase activity by Neolite reporter gene assay. Type of series: functional, organism-based. Particulars: H5N1, A549, 48 h.
A short description of series [9]: Cytotoxicity against human A549 cells incubated for 48 hrs by celltiter-glo luminescent cell viability assay. The class given is toxicity, cell-based.
For series [10], the system named is Influenza A virus. Nature of the series: Antiviral activity against group 2 influenza A virus H7N1 wild type. Type of series: functional, organism-based.

The structures appear in SMILES notation. The source made the active and inactive calls. The calls are words filed in the database; no cut-off is given here.

For `FC(F)(F)c1cc(Br)ccc1-c1nc2ncccn2c1NC1CCCCC1`, the outcome in series [1] and in series [7] was Active. Further, the figures for the selectivity ratio in [2], in series [3] and in series [6] were 1, 18 and 1, respectively. Also, the half-maximal inhibitory concentration (IC50) in series [4] came to 24 µM; in series [5], 1.4 µM; in [8], 20 µM. The molecule also returned a CC50 at 48 h in series [9] of 25 µM.
As for `COCCCCOc1ccc(-c2nc3ncccn3c2NC2CCCCC2)cc1`, the result in series [1] and in series [7] was Active. In addition, the figures for the selectivity ratio in series [2], in series [3] and in series [6] were 1, 400 and 2, respectively. Besides, the values for the IC50 in series [4], in series [5] and in [8] were 40 µM, 0.25 µM and 92 µM, respectively. Besides, the half-maximal cytotoxic concentration (CC50) at 48 h in [9] stood at 100 µM.
As to `CCCCOc1ccc(-c2nc3ncccn3c2NC2CCCCC2)cc1`, the selectivity ratio in [2] came to 1; in [3] it was 78; in [6] it was 2. For the same molecule, the concentration for half-maximal inhibition (IC50) was 36 µM in series [4], 0.67 µM in series [5] and 84 µM in [8]. Also, in series [9], it took 52 µM to reach half-maximal cytotoxicity (CC50 at 48 h).
On to `COc1ccc(-c2nc3ncccn3c2NC2CCCCC2)cc1`, for which the result in series [1] and in series [7] was Active. For the same molecule, the half-maximal inhibitory concentration (IC50) is 100 µM in series [4], 0.037 µM in [5], above 100 µM in [8] and 0.019 µM in series [10]. In series [9], this molecule had a CC50 at 48 h above 100 µM.
For the molecule `Cc1cc(Br)ccc1-c1nc2ncccn2c1Nc1ccccc1`, the selectivity ratio in [2] is below 1; in [3], 18; in series [6] it was 1. Besides, the concentration for half-maximal inhibition (IC50) in [4] was 100 µM; in [5] it was 2.2 µM; in series [8], above 100 µM. This molecule had a cytotoxic concentration (CC50) at 48 h in series [9] of 40 µM.
Regarding `Brc1ccc(-c2nc3ncccn3c2NC2CCCCC2)c(CN2CCOCC2)c1`, the selectivity ratio in series [2] is above 1; in series [3] it was 5; in series [6], below 1. The IC50 in series [4] stood at 60 µM; in series [5], 9.9 µM; in series [8], 32 µM. Besides, the cytotoxic concentration (CC50) at 48 h in series [9] amounted to 54 µM.
In the case of `Clc1ccc(-c2nc3ncccn3c2NC2CCCCC2)cc1`, the outcome in [1] and in series [7] was Active. In addition, the figures for the selectivity ratio in series [2], in series [3] and in series [6] were above 1, above 670 and above 2, respectively. The results for the half-maximal inhibitory concentration (IC50) in [4], in [5] and in [8] were 36 µM, 0.15 µM and above 100 µM, respectively. This molecule also registered a 50% cytotoxic concentration (CC50) at 48 h in series [9] above 100 µM.
